Here are results for two substances from publication PMC3392217, “BmK-YA, an Enkephalin-Like Peptide in Scorpion Venom” (PLoS ONE, 2012).

Usually EC50 stands for the concentration at which the effect is half-maximal.

No end group written: not given here.

Type in all cases: cell-based
The target in experiment [1] is T1, human opioid receptor μ (Homo sapiens, UniProt P35372).
T1 construct: expressed in transfected cells
The experiment is described as follows: Ca2+ response monitored by FLIPR, μ-expressing cells. The following applies: μ-expressing HEK293T cells. The protocol: (§1) The assay was performed as reported earlier.
(§2) Potency is determined by EC50.

Experiment [2] addresses T2, human opioid receptor δ (Homo sapiens, UniProt P41143).
T2 construct: expressed in transfected cells
The experiment is described as follows: Ca2+ response monitored by FLIPR, δ-expressing cells. The protocol: as §1, §2

Experiment [3] concerns the target T3, human opioid receptor κ (Homo sapiens, UniProt P41145).
T3 construct: expressed in transfected cells
The experiment is described as follows: Ca2+ response monitored by FLIPR, κ-expressing cells. The following applies: κ-expressing HEK293T cells. The procedure: as §1, §2

The mark [4] stands for this setting: Gqαi3 cotransfected, Fluo-4 AM, FLIPR, mean±SE, n = 3, read-out: EC50 (intracellular Ca2+ mobilization).

T2 sequence (P41143 whole entry): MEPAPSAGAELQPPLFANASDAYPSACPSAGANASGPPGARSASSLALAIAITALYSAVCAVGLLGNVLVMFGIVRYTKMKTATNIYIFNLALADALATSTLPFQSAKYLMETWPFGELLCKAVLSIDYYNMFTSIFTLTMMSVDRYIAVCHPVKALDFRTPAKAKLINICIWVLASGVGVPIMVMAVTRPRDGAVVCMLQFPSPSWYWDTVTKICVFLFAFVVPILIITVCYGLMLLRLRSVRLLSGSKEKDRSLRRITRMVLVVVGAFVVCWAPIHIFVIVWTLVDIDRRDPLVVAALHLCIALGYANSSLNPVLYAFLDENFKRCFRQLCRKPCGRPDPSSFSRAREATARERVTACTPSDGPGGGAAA
T1 sequence (P35372 whole entry): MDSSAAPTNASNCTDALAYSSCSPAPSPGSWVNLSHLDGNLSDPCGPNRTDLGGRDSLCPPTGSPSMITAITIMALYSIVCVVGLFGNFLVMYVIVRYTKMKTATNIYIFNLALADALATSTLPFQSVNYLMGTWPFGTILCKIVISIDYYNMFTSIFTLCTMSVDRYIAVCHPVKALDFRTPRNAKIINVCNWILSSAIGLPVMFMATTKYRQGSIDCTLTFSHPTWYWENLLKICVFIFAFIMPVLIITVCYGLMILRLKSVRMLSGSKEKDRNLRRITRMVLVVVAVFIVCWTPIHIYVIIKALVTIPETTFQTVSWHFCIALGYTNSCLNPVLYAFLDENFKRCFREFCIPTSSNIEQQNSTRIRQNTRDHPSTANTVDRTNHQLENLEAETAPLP
T3 sequence (P41145 whole entry): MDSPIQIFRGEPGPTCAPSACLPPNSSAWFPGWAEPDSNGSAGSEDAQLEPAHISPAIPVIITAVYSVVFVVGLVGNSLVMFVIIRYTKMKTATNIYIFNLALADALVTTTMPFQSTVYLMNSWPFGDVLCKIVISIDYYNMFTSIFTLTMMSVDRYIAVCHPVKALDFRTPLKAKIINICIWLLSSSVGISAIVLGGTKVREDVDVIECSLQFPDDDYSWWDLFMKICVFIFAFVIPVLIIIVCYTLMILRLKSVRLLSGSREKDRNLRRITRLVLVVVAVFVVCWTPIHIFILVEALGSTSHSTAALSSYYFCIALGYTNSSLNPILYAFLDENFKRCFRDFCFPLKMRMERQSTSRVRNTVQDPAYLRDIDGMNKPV

Take YGGYMNPA-NH2 [BmK-YA]: the EC50 in experiment [1] (setting [4]) amounted to 17 µM; in experiment [2] (δ-expressing HEK293T cells, Gqαi3 cotransfected, Fluo-4 AM, FLIPR, mean±SE, n = 3, read-out: EC50 (intracellular Ca2+ mobilization)), 2.5 µM; in experiment [3] (setting [4]), 30 ± 0.5 µM. In addition, the “Selectivity to the δ-subtype over κ (times)” value in experiment [2] (δ versus κ, FLIPR EC50) is listed as 12 times. Further, the “Selectivity to the δ-subtype over μ (times)” value in experiment [2] (δ versus μ, FLIPR EC50) amounted to 6.8 times.
As for YGGHMNPA [His^4-BmK-YA], the “Agonist activity, in words” value in experiment [1] (1 nM to 50 µM) is recorded as “no activity was detected”; in experiment [2] (δ-expressing HEK293T cells, 1 nM to 50 µM), “no activity was detected”; in experiment [3] (1 nM to 50 µM), “no activity was detected”.
